The record followed here is US20250144067A1, “PERSONALIZED STARVATION THERAPY FOR CANCER” (Faeth Therapeutics, Inc., priority 2021, published 2025).

Assay [1] concerns NCI-H292 lung cancer cells. In words: FDA drug screening, complete media vs cholesterol-free media with simvastatin (TABLE 2). In kind it is cell-based, human.
The subject of assay [2] is NCI-H292 lung cancer cells. In words: FDA drug screening, complete media vs cholesterol-free media without statin (TABLE 1). The class given is cell-based, human.
Setting [3] is: NCI-H292 cells, FDA drug library screen, cholesterol-free media with simvastatin 0.04 μM.
Where [4] appears, read: complete media vs cholesterol-free media + simvastatin (0.04 μM), […].
Where [5] appears, read: Complete minus Cholesterol-free, […].
[6] abbreviates: NCI-H292 cells, cholesterol-free media without statin, FDA drug library screen.
Where [7] appears, read: NCI-H292 cells, complete media, FDA drug library screen.
Where [8] appears, read: NCI-H292 cells, FDA library drug in cholesterol-free media with simvastatin 0.04 μM.
[9] abbreviates: NCI-H292 cells, FDA library drug in complete media.
Where [10] appears, read: complete media vs cholesterol-free media + simvastatin (0.04 μM), >0 enhanced anti-cancer activity, about 0 neutral, <0 antagonist.
Setting [11] is: complete vs cholesterol-free media, >0 enhanced anti-cancer activity, about 0 neutral, <0 antagonist.
[12] abbreviates: NCI-H292 cells, cholesterol-free media with simvastatin 0.04 μM, FDA drug library screen (TABLE 2).
Where [13] appears, read: NCI-H292 cells, complete media, FDA drug library screen (TABLE 2).
Where [14] appears, read: complete media minus cholesterol-free media + simvastatin (0.04 μM), >0 enhanced anti-cancer activity, about 0 neutral, <0 antagonist.
Setting [15] is: NCI-H292 cells, cholesterol-free media without statin.
[16] abbreviates: complete vs cholesterol-free media, greater than 0 enhanced anti-cancer activity, about 0 neutral, below 0 antagonists.
Where [17] appears, read: Complete minus Cholesterol-free, >0 enhanced anti-cancer activity, about 0 neutral, <0 antagonist.
Where [18] appears, read: NCI-H292 cells, FDA drug library screen, complete media.
[19] abbreviates: NCI-H292 cells, drug in cholesterol-free media with simvastatin 0.04 μM.
The mark [20] stands for this setting: NCI-H292 cells, drug in complete media.

Counter-ions that a name gives are not always drawn. Like-named read-outs stand apart in the source and are kept apart here. Peptide text beside a SMILES is read from it.

Regarding Selumetinib (sulfate), the “Cholesterol-free media + simvastatin (0.04 μM)” value in assay [1] (setting [3]) amounted to 0.2941. For the same molecule, the Difference in assay [1] (setting [4]) is −0.10; in assay [2] (setting [5]), −0.06. The molecule further had a Cholesterol-free in assay [2] (setting [6]) of 0.3932. This molecule returned a Complete in assay [2] (setting [7]) of 0.3287.
With `O=C(O)c1ccc2nc(-c3cc(Cl)cc(Cl)c3)oc2c1` [Tafamidis], in assay [1] (setting [8]), the “Cholesterol-free media + simvastatin (0.04 μM)” value is 1.307. For the same molecule, the “Complete Media” value in assay [1] (setting [9]) was 0.9388. Also, the Difference in assay [1] (setting [10]) is on record as −0.37; in assay [2] (setting [11]), 0.46. The molecule also came in with a Cholesterol-free in assay [2] (setting [6]) of 0.399. This molecule also came in with a Complete in assay [2] (setting [7]) of 0.8565.
With `O=C1[C@H]2CCCC[C@H]2C(=O)N1CCCCN1CCN(c2nsc3ccccc23)CC1` [Perospirone], the “Cholesterol-free media + simvastatin (0.04 μM)” value in assay [1] (setting [12]) came to 0.9946. Also, the “Complete Media” value in assay [1] (setting [13]) is 0.9329. The Difference is reported as −0.06 in assay [1] (setting [14]) and −0.33 in assay [2] (setting [16]). The molecule also returned a Cholesterol-free in assay [2] (setting [15]) of 1.046. Moreover, the Complete in assay [2] (NCI-H292 cells, complete media) was found to be 0.7154.
`CC(C)Cc1ccc(C(C)C(=O)O)cc1` (stereo not shown) [Ibuprofen]: the “Cholesterol-free media + simvastatin (0.04 μM)” value in assay [1] (setting [8]) amounted to 1.512. The Difference in assay [1] (setting [10]) and in assay [2] (setting [16]) was −0.36 throughout. Moreover, the Cholesterol-free in assay [2] (setting [15]) came out at 1.419. In addition, in assay [2] (NCI-H292 cells, complete media), the Complete is 1.058.
As for `O=C(O)Cc1ccccc1Nc1c(Cl)cccc1Cl` [Diclofenac (Sodium)], the “Cholesterol-free media + simvastatin (0.04 μM)” value in assay [1] (setting [8]) is given as 1.356. Moreover, the “Complete Media” value in assay [1] (setting [9]) turned out to be 0.9075. Further, the Difference in assay [1] (setting [10]) is reported as −0.45; in assay [2] (setting [17]), −0.23. Besides, in assay [2] (setting [15]), the Cholesterol-free is recorded as 1.086. Besides, the Complete in assay [2] (NCI-H292 cells, complete media) worked out at 0.859.
As for `CN(C)C(=O)c1cc2cnc(Nc3ccc(N4CCNCC4)cn3)nc2n1C1CCCC1` [Ribociclib hydrochloride], in assay [1] (setting [3]), the “Cholesterol-free media + simvastatin (0.04 μM)” value is 0.9857. The “Complete Media” value in assay [1] (setting [18]) worked out at 0.8306. Besides, the Difference is −0.16 in assay [1] (setting [10]) and 0.32 in assay [2] (setting [11]). The same molecule returned a Cholesterol-free in assay [2] (setting [6]) of 1.177. This molecule came in with a Complete in assay [2] (setting [7]) of 1.5.
As for `COc1ccc(CN2CCNCC2)c(OC)c1OC` [Trimetazidine (dihydrochloride)], the “Cholesterol-free media + simvastatin (0.04 μM)” value in assay [1] (setting [19]) amounted to 1.296. For the same molecule, the “Complete Media” value in assay [1] (setting [20]) was 1.112. Also, the results for the Difference in assay [1] (setting [10]) and in assay [2] (setting [17]) were −0.18 and −0.30, respectively. Besides, in assay [2] (setting [15]), the Cholesterol-free was determined as 1.134. The Complete in assay [2] (NCI-H292 cells, complete media) is recorded as 0.836.
On to `CC(=O)CC(c1ccc([N+](=O)[O-])cc1)c1c(O)c2ccccc2oc1=O` (stereo not shown) [Acenocoumarol], for which the “Cholesterol-free media + simvastatin (0.04 μM)” value in assay [1] (setting [3]) stood at 2.014. The Difference in assay [1] (setting [14]) is −0.90; in assay [2] (setting [17]), −0.28. The Cholesterol-free in assay [2] (setting [15]) is 1.889. The Complete in assay [2] (NCI-H292 cells, complete media) was determined as 1.605.
Regarding `[O-][n+]1ccccc1[S-].[O-][n+]1ccccc1[S-].[Zn+2]` [Zinc Pyrithione], in assay [1], the “Cholesterol-free media + simvastatin (0.04 μM)” value is recorded as 0.004251, the “Complete Media” value is listed as −0.04835 and the Difference is reported as −0.05. Besides, in assay [2], the Cholesterol-free was determined as 0.0139, the Complete worked out at 0.007475 and the Difference is −0.01.
As to `CC(CCc1ccc(O)cc1)NCCc1ccc(O)c(O)c1` (stereo not shown) [Dobutamine (hydrochloride)], the “Cholesterol-free media + simvastatin (0.04 μM)” value in assay [1] (setting [3]) is listed as 0.8343. For the same molecule, in assay [1] (setting [18]), the “Complete Media” value is recorded as 1.237. Further, the Difference in assay [1] (complete media minus cholesterol-free media + simvastatin, >0 enhanced anti-cancer activity, about 0 neutral, <0 antagonist) was determined as 0.40; in assay [2] (setting [17]) it was 0.01. In addition, the Cholesterol-free in assay [2] (setting [6]) was determined as 1.125. This molecule also returned a Complete in assay [2] (setting [7]) of 1.131.
In the case of `CCNC(=O)[C@@H]1CCCN1C(=O)[C@H](CCCNC(=N)N)NC(=O)[C@H](CC(C)C)NC(=O)CNC(=O)[C@H](Cc1ccc(O)cc1)NC(=O)[C@H](CO)NC(=O)[C@H](Cc1c[nH]c2ccccc12)NC(=O)[C@H](Cc1c[nH]cn1)NC(=O)[C@@H]1CCC(=O)N1` [Fertirelin] (HELM PEPTIDE1{[Glp].H.W.S.Y.G.L.R.P.[CCN[*:1]]}$$$$V2.0), the “Cholesterol-free media + simvastatin (0.04 μM)” value in assay [1] (setting [19]) stood at 1.367. For the same molecule, the “Complete Media” value in assay [1] (setting [20]) was 1.138. For the same molecule, the Difference is −0.23 in assay [1] (setting [4]) and −0.12 in assay [2] (setting [5]). The Cholesterol-free in assay [2] (NCI-H292 cells, FDA drug library screen, cholesterol-free media without statin) was 0.9867. In assay [2] (setting [18]), this molecule gave a Complete of 0.8642.
Take Fludarabine (phosphate): in assay [1] (NCI-H292 cells, cholesterol-free media with simvastatin 0.04 μM, […]), the “Cholesterol-free media + simvastatin (0.04 μM)” value turned out to be 1.095. Further, in assay [1] (NCI-H292 cells, complete media, […]), the “Complete Media” value is given as 1.138. Also, the Difference in assay [1] (complete media minus cholesterol-free media + simvastatin, […]) was 0.04; in assay [2] (setting [5]), −0.10. In assay [2] (setting [18]), this molecule registered a Complete of 0.9769.
As to `O=C(O)[C@H](O)[C@@H](O)[C@H](O)[C@H](O)CO` [D-Gluconic acid], in assay [1], the “Cholesterol-free media + simvastatin (0.04 μM)” value worked out at 1.103, the “Complete Media” value is 0.9995 and the Difference is given as −0.10. In assay [2], this molecule gave a Cholesterol-free of 1.845, a Complete of 1.115 and a Difference of −0.73.
Turning to `COc1ccccc1Oc1c(NS(=O)(=O)c2ccc(C(C)(C)C)cc2)nc(-c2ncccn2)nc1OCCO` [Bosentan], the “Cholesterol-free media + simvastatin (0.04 μM)” value in assay [1] (setting [12]) was 1.122. In assay [1] (setting [13]), the “Complete Media” value was determined as 1.122. Besides, the Difference is listed as 0.00 in assay [1] (setting [14]) and −0.05 in assay [2] (setting [17]). In addition, in assay [2] (setting [6]), the Cholesterol-free was 1.038. Further, the Complete in assay [2] (setting [7]) is on record as 0.9904.
Regarding `C[C@H](Cc1cc2c(c(C(N)=O)c1)N(CCCO)CC2)NCCOc1ccccc1OCC(F)(F)F` [Silodosin], in assay [1] (setting [3]), the “Cholesterol-free media + simvastatin (0.04 μM)” value stood at 1.21. Besides, the “Complete Media” value in assay [1] (setting [18]) is 1.074. In addition, the Difference was −0.14 in assay [1] (setting [10]) and −0.41 in assay [2] (setting [16]). Also, the Cholesterol-free in assay [2] (setting [15]) is 1.295. In assay [2] (NCI-H292 cells, complete media), this molecule displayed a Complete of 0.8816.
In the case of `CCC(CC)[C@H](NC(C)=O)[C@@H]1[C@H](O)[C@@H](C(=O)O)C[C@H]1NC(=N)N.O.O.O` [Peramivir (trihydrate)], in assay [1] (setting [3]), the “Cholesterol-free media + simvastatin (0.04 μM)” value came to 1.025. Moreover, in assay [1] (setting [18]), the “Complete Media” value was found to be 0.9283. The Difference in assay [1] (setting [10]) is −0.10; in assay [2] (setting [16]) it was −0.46. For the same molecule, in assay [2] (setting [15]), the Cholesterol-free stood at 2.062. Further, the Complete in assay [2] (NCI-H292 cells, complete media) is reported as 1.606.
Regarding `CC(C)(C)c1cc(-c2cc(-c3ccc(C(=O)O)cc3)ccc2OCCO)ccc1N1CCCC1` [Trifarotene], the “Cholesterol-free media + simvastatin (0.04 μM)” value in assay [1] (setting [3]) was 0.9343. Besides, in assay [1] (setting [18]), the “Complete Media” value is on record as 0.8355. For the same molecule, the Difference in assay [1] (setting [10]) was −0.10; in assay [2] (setting [16]), −0.31. This molecule also had a Cholesterol-free in assay [2] (setting [15]) of 1.099. This molecule also gave a Complete in assay [2] (NCI-H292 cells, complete media) of 0.7867.
Regarding `CCc1ccc(CCOc2ccc(CC3SC(=O)NC3=O)cc2)nc1` (stereo not shown) [Pioglitazone], the “Cholesterol-free media + simvastatin (0.04 μM)” value in assay [1] (setting [8]) came to 2.095. The “Complete Media” value in assay [1] (setting [9]) stood at 1.521. In addition, the values for the Difference in assay [1] (setting [10]) and in assay [2] (setting [11]) were −0.57 and 0.27, respectively. This molecule came in with a Cholesterol-free in assay [2] (setting [6]) of 0.8939.
In the case of `C[C@H](N[C@@H](CCc1ccccc1)C(=O)O)C(=O)N1CCC[C@H]1C(=O)O.O.O` [Enalaprilat (dihydrate)], the “Cholesterol-free media + simvastatin (0.04 μM)” value in assay [1] (setting [8]) is recorded as 1.635. For the same molecule, in assay [1] (setting [9]), the “Complete Media” value is on record as 1.051. For the same molecule, the Difference is recorded as −0.58 in assay [1] (setting [10]) and −0.58 in assay [2] (Complete minus Cholesterol-free, greater than 0 enhanced anti-cancer activity, about 0 neutral, below 0 antagonists). The Cholesterol-free in assay [2] (NCI-H292 cells in cholesterol-free media without statin) was 1.525. In addition, the Complete in assay [2] (NCI-H292 cells in complete media) is 0.949.
